Among the data in ChEMBL document CHEMBL1255235, “Molecular basis for resistance of acanthamoeba tubulins to all major classes of antitubulin compounds” (Antimicrob Agents Chemother, 2008) are IC50 values, retold here.

Test [1] in a line: Inhibition of tubulin in Acanthamoeba polyphaga by alamar blue assay. Background: The colour change of resazurin is a common sign of viable cells or microbes.
Test [2] is described as follows: Inhibition of tubulin in Acanthamoeba castellanii by alamar blue assay.
The nature of test [3]: Inhibition of tubulin in rabbit corneal cells by alamar blue assay. The class given is cell-based. Conditions: Oryctolagus cuniculus, Cornea.
For a further test, the system named is Toxoplasma gondii. In words: Antimicrobial activity against Toxoplasma gondii. It is filed as functional, organism-based.
A further test has as its system Leishmania sp. In words: Antimicrobial activity against Leishmania sp. It is filed as functional, organism-based.
A further test deals with Acanthamoeba polyphaga. In words: Antimicrobial activity against Acanthamoeba polyphaga. The class given is functional, organism-based.
Another test has as its system Acanthamoeba castellanii. In words: Antimicrobial activity against Acanthamoeba castellanii. The class given is functional, organism-based.

Molecules are shown by their SMILES.

Broadly, the IC50 is the concentration that gives 50% inhibition. High values mean a need for much substance, low ones inhibition by little substance.

`CCCN(CCC)c1c([N+](=O)[O-])cc(S(N)(=O)=O)cc1[N+](=O)[O-]` [ORYZALIN]: the IC50 in test [1] was > 100 µM; in test [2] it was > 100 µM; in test [3], > 500 µM.

For `CC(=O)O[C@H]1C(=O)[C@@]2(C)[C@H]([C@H](OC(=O)c3ccccc3)[C@]3(O)C[C@H](OC(=O)[C@H](O)[C@@H](NC(=O)c4ccccc4)c4ccccc4)C(C)=C1C3(C)C)[C@]1(OC(C)=O)CO[C@@H]1C[C@@H]2O` [PACLITAXEL], the IC50 with Toxoplasma gondii was 1 µM; in the test on Leishmania sp., 0.035 µM; in test [1] it was > 10 µM; in test [2], > 10 µM; in test [3] it was 0.04 µM.

As to `COc1cc2c(c(OC)c1OC)-c1ccc(OC)c(=O)cc1[C@@H](NC(C)=O)CC2` [COLCHICINE], the IC50 is 2500 µM in test [1], 2.5 µM in test [2] and 2.4 µM in test [3].

`N=C(NCCCCCCNC(=N)NC(=N)Nc1ccc(Cl)cc1)NC(=N)Nc1ccc(Cl)cc1` [CHLORHEXIDINE]: the IC50 came out at 3.12 µM in the test on Acanthamoeba polyphaga and 1.56 µM in the test with Acanthamoeba castellanii.

On to `CCCSc1ccc2[nH]c(NC(=O)OC)nc2c1` [ALBENDAZOLE], for which the concentration for half-maximal inhibition (IC50) in test [1] is > 47 µM; in test [2], > 47 µM; in test [3] it was 0.7 µM.

Turning to `CC[C@]1(O)C[C@@H]2CN(CCc3c([nH]c4ccccc34)[C@@](C(=O)OC)(c3cc4c(cc3OC)N(C)[C@H]3[C@@](O)(C(=O)OC)[C@H](OC(C)=O)[C@]5(CC)C=CCN6CC[C@]43[C@@H]65)C2)C1` [VINBLASTINE], the IC50 in test [1] was found to be 0.68 µM; in test [2], 0.68 µM; in test [3], 0.017 µM.
